Key:
M-SPOTIT2 = assay type: cell-based; settings: pH 11
MOR = MOR (Homo sapiens, UniProt P35372); settings: previous studies; cited from earlier work
K-SPOTIT1.0 = biological target: T1, K-SPOTIT1.0 (Homo sapiens, UniProt P41145); assay type: cell-based
T1 construct: expressed in transfected cells; host or cells: HEK293T (lentiviral infection)

[1] = biological target: kappa-opioid receptor (KOR) as in K-SPOTIT1.0 (Homo sapiens (Human)) (UniProt P41145); assay: cell-based or functional assay

T1 sequence (P41145 with tags, fused parts or gaps): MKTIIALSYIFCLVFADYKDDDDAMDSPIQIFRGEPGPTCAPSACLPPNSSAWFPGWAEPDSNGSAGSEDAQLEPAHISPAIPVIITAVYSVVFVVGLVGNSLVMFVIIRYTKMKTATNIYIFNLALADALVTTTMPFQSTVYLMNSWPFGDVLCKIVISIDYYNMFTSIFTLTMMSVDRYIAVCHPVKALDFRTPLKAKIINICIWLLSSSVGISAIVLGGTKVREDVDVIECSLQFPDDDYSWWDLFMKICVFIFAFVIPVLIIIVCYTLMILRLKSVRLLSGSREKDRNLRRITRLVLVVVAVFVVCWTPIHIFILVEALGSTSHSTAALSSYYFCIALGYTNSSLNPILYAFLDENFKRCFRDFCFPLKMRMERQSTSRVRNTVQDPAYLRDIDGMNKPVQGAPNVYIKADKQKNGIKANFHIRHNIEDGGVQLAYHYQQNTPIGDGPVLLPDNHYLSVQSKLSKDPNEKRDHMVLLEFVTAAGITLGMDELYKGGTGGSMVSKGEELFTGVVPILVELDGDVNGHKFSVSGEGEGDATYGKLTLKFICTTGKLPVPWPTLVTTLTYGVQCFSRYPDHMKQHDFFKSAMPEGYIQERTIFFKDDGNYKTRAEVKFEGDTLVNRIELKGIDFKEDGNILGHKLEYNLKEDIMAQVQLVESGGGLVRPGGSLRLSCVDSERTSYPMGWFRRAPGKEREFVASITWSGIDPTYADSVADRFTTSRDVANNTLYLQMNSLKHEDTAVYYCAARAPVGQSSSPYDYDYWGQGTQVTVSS
Chain of MOR (P35372 whole entry): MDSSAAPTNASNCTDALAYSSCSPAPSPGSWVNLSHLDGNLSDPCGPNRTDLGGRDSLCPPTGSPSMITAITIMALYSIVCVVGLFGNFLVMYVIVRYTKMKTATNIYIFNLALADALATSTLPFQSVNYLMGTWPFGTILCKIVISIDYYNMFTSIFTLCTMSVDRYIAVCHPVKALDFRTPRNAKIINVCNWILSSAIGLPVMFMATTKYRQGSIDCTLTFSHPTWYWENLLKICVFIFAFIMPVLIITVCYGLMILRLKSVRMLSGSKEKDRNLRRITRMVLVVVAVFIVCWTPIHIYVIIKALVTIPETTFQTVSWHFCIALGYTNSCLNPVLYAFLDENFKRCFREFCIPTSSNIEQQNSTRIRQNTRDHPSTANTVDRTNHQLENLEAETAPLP

Molecule	SNR (M-SPOTIT2)	further results
COc1ccc2c3c1O[C@H]1C(=O)CC[C@@]4(O)[C@@H](C2)N(C)CC[C@]314 [oxycodone]	highest SNR	
O=C(Cc1ccc(Cl)c(Cl)c1)N1CCCCC1CN1CCCC1 (stereo not drawn) [BRL52537]	much lower SNR	
CN(C)C(=O)C(CCN1CCC(O)(c2ccc(Cl)cc2)CC1)(c1ccccc1)c1ccccc1 [loperamide]	highest SNR	
CC(C)C[C@@H](NC(=O)[C@H](Cc1ccccc1)NC(=O)CNC(=O)[C@@H](C)NC(=O)[C@@H](N)Cc1ccc(O)cc1)C(=O)O [DADLE]		affinity for MOR (MOR): weak affinity
Oc1ccc2c3c1O[C@H]1c4[nH]c5c(c4C[C@@]4(O)[C@@H](C2)N(CC2CC2)CC[C@]314)C[C@@]1(O)[C@H]2Cc3ccc(O)c4c3[C@@]1(CCN2CC1CC1)[C@H]5O4 [Nor-BNI, nor-binaltorphimine]		fluorescence before and after addition of KOR antagonist post fluorophore maturation (K-SPOTIT1.0): Comparable fluorescence; fluorescence increase when antagonist added after initial 30-second agonist stimulation, vs Nor-BNI only cells (K-SPOTIT1.0): No significant fluorescence increase
CN1CC[C@]23c4c5ccc(O)c4O[C@H]2[C@@H](O)C=C[C@H]3[C@H]1C5 [morphine]	highest SNR	
COC(=O)[C@@H]1C[C@H](OC(C)=O)C(=O)[C@H]2[C@@]1(C)CC[C@H]1C(=O)O[C@H](c3ccoc3)C[C@]21C [Sal A, Salvinorin A]	much lower SNR	
C=CCN1CC[C@]23c4c5ccc(O)c4O[C@H]2C(=O)CC[C@@]3(O)[C@H]1C5 [naloxone]	much lower SNR	
Gαi protein mimic nanobody 39 (Nb39) (VHH) VHH: QVQLVESGGGLVRPGGSLRLSCVDSERTSYPMGWFRRAPGKEREFVASITWSGIDPTYADSVADRFTTSRDVANNTLYLQMNSLKHEDTAVYYCAARAPVGQSSSPYDYDYWGQGTQVTVSS		cpGFP fluorescence of K-SPOTIT1.0 after a 30-second pulse of Sal A, then 24 hours of incubation [1]: 4.2 fold; cpGFP fluorescence of K-SPOTIT1.0 after longer Sal A incubation [1]: 12 fold; cpGFP fluorescence of K-SPOTIT1.0 in HEK293T cells, 24 hours with 10 µM Salvinorin A against no Sal A [1]: 10.9 fold
